Here are results for 26 compounds from US11739078B2, “Methods of inhibiting kinases” (INSILICO MEDICINE IP LIMITED, priority 2019, dated 2023).

Where two headings read alike, the source gives them in different places.

The target in experiment [1] is MAP4K4 (h) (Homo sapiens (Human), UniProt O95819). The experiment in a line: MAP4K4 in vitro kinase assay (radiometric). The following applies: read-out: MAP4K4_IC50. In kind it is biochemical. As to the method:
(specific activity and concentration as required). The reaction is initiated by the addition of the Mg/ATP mix. After incubation for 40 minutes at room temperature, the reaction is stopped by the addition of phosphoric acid to a concentration of 0.5%.

Experiment [2] addresses TNIK (Homo sapiens (Human), UniProt Q9UKE5). The experiment in a line: TNIK enzymatic assay (radiometric kinase inhibition). It counts as biochemical. The protocol: The compounds were studied for function as TNIK inhibitors to generate the data of Table 1. […] (specific activity and concentration as required). The reaction is initiated by the addition of the Mg/ATP mix. After incubation for 40 minutes at room temperature, the reaction is stopped by the addition of phosphoric acid to a concentration of 0.5%.

The mark [3] stands for this setting: TNIK enzymatic assay, Table 1, read-out: IC50.

Chain of MAP4K4 (h) (O95819 whole entry): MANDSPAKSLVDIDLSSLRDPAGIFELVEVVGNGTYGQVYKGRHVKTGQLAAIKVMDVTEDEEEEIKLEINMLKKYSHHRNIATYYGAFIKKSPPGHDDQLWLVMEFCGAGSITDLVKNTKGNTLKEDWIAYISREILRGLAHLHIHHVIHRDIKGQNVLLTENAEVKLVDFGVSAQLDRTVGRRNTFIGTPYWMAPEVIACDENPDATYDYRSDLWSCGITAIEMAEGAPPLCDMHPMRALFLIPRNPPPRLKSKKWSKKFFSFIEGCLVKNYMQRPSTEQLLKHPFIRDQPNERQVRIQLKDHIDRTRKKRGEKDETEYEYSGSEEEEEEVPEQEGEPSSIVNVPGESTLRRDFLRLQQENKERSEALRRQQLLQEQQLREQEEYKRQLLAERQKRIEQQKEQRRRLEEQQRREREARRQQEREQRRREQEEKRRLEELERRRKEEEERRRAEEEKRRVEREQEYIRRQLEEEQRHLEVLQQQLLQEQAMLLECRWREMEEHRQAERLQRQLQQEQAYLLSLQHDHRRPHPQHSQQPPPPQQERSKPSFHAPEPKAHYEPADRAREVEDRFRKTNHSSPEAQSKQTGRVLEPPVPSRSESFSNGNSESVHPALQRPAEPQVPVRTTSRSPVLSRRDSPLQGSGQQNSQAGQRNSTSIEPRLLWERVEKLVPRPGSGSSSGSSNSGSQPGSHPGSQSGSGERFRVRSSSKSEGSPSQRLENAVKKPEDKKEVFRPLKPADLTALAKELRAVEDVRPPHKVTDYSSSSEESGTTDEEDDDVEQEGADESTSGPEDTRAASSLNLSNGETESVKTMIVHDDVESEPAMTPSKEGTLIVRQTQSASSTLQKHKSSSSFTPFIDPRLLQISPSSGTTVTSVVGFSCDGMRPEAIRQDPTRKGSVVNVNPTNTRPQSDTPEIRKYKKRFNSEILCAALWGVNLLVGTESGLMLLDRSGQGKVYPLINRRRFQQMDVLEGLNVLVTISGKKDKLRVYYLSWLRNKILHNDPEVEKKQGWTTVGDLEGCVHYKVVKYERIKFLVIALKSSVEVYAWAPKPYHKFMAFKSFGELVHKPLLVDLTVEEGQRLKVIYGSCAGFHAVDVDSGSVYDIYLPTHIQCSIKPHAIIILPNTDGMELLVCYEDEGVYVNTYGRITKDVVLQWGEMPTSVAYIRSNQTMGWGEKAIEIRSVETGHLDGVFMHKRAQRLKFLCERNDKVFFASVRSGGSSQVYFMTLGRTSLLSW
Chain of TNIK (Q9UKE5 whole entry): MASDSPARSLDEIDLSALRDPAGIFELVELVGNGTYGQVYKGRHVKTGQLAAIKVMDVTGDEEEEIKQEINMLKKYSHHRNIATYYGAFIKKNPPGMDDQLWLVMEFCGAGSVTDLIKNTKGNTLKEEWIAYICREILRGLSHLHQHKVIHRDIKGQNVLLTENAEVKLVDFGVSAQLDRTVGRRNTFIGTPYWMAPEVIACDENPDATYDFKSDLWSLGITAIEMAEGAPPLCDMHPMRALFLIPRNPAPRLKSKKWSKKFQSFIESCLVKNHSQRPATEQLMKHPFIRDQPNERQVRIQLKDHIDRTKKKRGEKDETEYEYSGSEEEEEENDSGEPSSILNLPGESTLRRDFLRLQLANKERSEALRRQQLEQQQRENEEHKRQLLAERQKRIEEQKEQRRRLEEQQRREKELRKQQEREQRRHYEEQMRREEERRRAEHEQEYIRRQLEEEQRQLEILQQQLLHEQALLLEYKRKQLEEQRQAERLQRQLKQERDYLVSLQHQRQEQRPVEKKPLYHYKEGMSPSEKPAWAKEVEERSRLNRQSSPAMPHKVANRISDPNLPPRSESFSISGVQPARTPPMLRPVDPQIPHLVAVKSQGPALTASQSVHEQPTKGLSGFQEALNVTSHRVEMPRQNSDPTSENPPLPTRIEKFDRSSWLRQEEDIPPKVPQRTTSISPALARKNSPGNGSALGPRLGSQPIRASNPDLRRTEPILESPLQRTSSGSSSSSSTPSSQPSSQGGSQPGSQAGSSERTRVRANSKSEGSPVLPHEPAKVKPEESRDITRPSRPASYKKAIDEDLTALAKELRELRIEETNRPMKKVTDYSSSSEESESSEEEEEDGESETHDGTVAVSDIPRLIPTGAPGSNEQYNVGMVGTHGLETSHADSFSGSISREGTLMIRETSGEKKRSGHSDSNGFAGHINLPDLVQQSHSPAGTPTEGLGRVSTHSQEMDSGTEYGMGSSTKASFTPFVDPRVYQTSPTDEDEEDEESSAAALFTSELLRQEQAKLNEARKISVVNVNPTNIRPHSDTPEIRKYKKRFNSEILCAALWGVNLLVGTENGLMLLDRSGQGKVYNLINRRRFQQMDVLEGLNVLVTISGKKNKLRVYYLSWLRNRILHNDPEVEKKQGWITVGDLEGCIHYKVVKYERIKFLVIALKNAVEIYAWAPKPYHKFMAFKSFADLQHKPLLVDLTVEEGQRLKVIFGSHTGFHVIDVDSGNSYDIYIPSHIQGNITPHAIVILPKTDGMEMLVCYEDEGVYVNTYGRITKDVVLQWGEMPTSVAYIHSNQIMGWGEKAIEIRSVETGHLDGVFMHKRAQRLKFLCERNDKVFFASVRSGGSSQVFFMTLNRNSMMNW

For `CC(=O)Nc1ccc(NC(=O)c2ccc(-c3c(-c4ccc(F)cc4)ncn3C3CCCC3)o2)cc1` [Compound 46, N-(4-acetamidophenyl)-5-(1-cyclopentyl-4-(4-fluorophenyl)-1H-imidazol-5-yl)furan-2-carboxamide], the IC50 was determined as 30.9 nM in experiment [1], 24 nM in experiment [2] (setting [3]) and 24 nM in experiment [2] (read-out: TNIK_IC50).

`O=C(Nc1ccc(Br)cc1)c1ccc(-c2c(-c3ccc(F)cc3)ncn2C2CCCC2)o1` [Compound 49, N-(4-bromophenyl)-5-(1-cyclopentyl-4-(4-fluorophenyl)-1H-imidazol-5-yl)furan-2-carboxamide]: the IC50 in experiment [1] was found to be 436 nM; in experiment [2] (setting [3]), 152 nM; in experiment [2] (read-out: TNIK_IC50), 152 nM.

`COc1cccc(NC(=O)c2ccc(-c3c(-c4ccc(F)cc4)ncn3C3CCCCC3)o2)c1` [Compound 53, 5-(1-cyclohexyl-4-(4-fluorophenyl)-1H-imidazol-5-yl)-N-(3-methoxyphenyl)furan-2-carboxamide]: the IC50 in experiment [1] came to 244 nM; in experiment [2] (setting [3]), 138 nM; in experiment [2] (read-out: TNIK_IC50) it was 138 nM.

For the compound `O=C(Nc1cc[nH]c(=O)c1)c1ccc(-c2c(-c3ccc(F)cc3)ncn2C2COCC2(F)F)o1` (stereo not drawn) [Compound A-42, 5-(1-(4,4-difluorotetrahydrofuran-3-yl)-4-(4-fluorophenyl)-1H-imidazol-5-yl)-N-(2-oxo-1,2-dihydropyridin-4-yl)furan-2-carboxamide], the IC50 in experiment [1] is 231 nM; in experiment [2] (read-out: TNIK_IC50), 124 nM.

For the compound `Cc1ccccc1NC(=O)c1ccc(-c2c(-c3ccc(F)cc3)ncn2C2CCCCC2)o1` [Compound 65, 5-(1-cyclohexyl-4-(4-fluorophenyl)-1H-imidazol-5-yl)-N-(o-tolyl)furan-2-carboxamide], the values for the IC50 in experiment [1], in experiment [2] (setting [3]) and in experiment [2] (read-out: TNIK_IC50) were 320 nM, 152 nM and 152 nM, respectively.

Turning to `Cc1cc(F)ccc1NC(=O)c1ccc(-c2c(-c3ccc(F)cc3)ncn2C2CCCC2)o1` [Compound 43, 5-(1-cyclopentyl-4-(4-fluorophenyl)-1H-imidazol-5-yl)-N-(4-fluoro-2-methylphenyl)furan-2-carboxamide], the IC50 was determined as 139 nM in experiment [1], 172 nM in experiment [2] (setting [3]) and 172 nM in experiment [2] (read-out: TNIK_IC50).

As for `O=C(Nc1cccc(F)c1)c1ccc(-c2c(-c3ccc(F)cc3)ncn2C2CCCCC2)o1` [Compound 63, 5-(1-cyclohexyl-4-(4-fluorophenyl)-1H-imidazol-5-yl)-N-(3-fluorophenyl)furan-2-carboxamide], the IC50 amounted to 127 nM in experiment [1], 108 nM in experiment [2] (setting [3]) and 108 nM in experiment [2] (read-out: TNIK_IC50).

On to `O=C(Nc1ccccc1F)c1ccc(-c2c(-c3ccc(F)cc3)ncn2C2CCCCC2)o1` [Compound 62, 5-(1-cyclohexyl-4-(4-fluorophenyl)-1H-imidazol-5-yl)-N-(2-fluorophenyl)furan-2-carboxamide], for which the IC50 was determined as 46.9 nM in experiment [1], 25 nM in experiment [2] (setting [3]) and 25 nM in experiment [2] (read-out: TNIK_IC50).

As for `Cc1cc(C)c(NC(=O)c2ccc(-c3c(-c4ccc(F)cc4)ncn3C3CCCC3)o2)c(C)c1` [Compound 34, 5-(1-cyclopentyl-4-(4-fluorophenyl)-1H-imidazol-5-yl)-N-mesitylfuran-2-carboxamide], the IC50 in experiment [1] was found to be 240 nM; in experiment [2] (setting [3]) it was 319 nM; in experiment [2] (read-out: TNIK_IC50), 319 nM.

Regarding `O=C(Nc1ccc(F)cc1F)c1ccc(-c2c(-c3ccc(F)cc3)ncn2C2CCCCC2)o1` [Compound 57, 5-(1-cyclohexyl-4-(4-fluorophenyl)-1H-imidazol-5-yl)-N-(2,4-difluorophenyl)furan-2-carboxamide], the IC50 in experiment [1] turned out to be 111 nM; in experiment [2] (setting [3]), 38 nM; in experiment [2] (read-out: TNIK_IC50) it was 38 nM.

On to `Cc1ccc(C)c(NC(=O)c2ccc(-c3c(-c4ccc(F)cc4)ncn3C3CCCC3)o2)c1` [Compound 31, 5-(1-cyclopentyl-4-(4-fluorophenyl)-1H-imidazol-5-yl)-N-(2,5-dimethylphenyl)furan-2-carboxamide], for which the IC50 in experiment [1] was determined as 457 nM; in experiment [2] (setting [3]), 135 nM; in experiment [2] (read-out: TNIK_IC50) it was 135 nM.

With `O=C(Nc1ccncc1F)c1ccc(-c2c(-c3ccc(F)cc3)ncn2CC2CCOC2)o1` (stereo not drawn) [Compound A-36, 5-(4-(4-fluorophenyl)-1-((tetrahydrofuran-3-yl)methyl)-1H-imidazol-5-yl)-N-(3-fluoropyridin-4-yl)furan-2-carboxamide], the values for the IC50 in experiment [1] and in experiment [2] (read-out: TNIK_IC50) were 161 nM and 83.2 nM, respectively.

Turning to `CSc1cccc(NC(=O)c2ccc(-c3c(-c4ccc(F)cc4)ncn3C3CCCCC3)o2)c1` [Compound 72, 5-(1-cyclohexyl-4-(4-fluorophenyl)-1H-imidazol-5-yl)-N-(3-(methylthio)phenyl)furan-2-carboxamide], the values for the IC50 in experiment [1], in experiment [2] (setting [3]) and in experiment [2] (read-out: TNIK_IC50) were 638 nM, 238 nM and 238 nM, respectively.

On to `CCOc1ccc(NC(=O)c2ccc(-c3c(-c4ccc(F)cc4)ncn3C3CCCC3)o2)cc1` [Compound 28, 5-(1-cyclopentyl-4-(4-fluorophenyl)-1H-imidazol-5-yl)-N-(4-ethoxyphenyl)furan-2-carboxamide], for which the figures for the IC50 in experiment [1], in experiment [2] (setting [3]) and in experiment [2] (read-out: TNIK_IC50) were 63.7 nM, 37 nM and 37 nM, respectively.

Regarding `CCc1ccccc1NC(=O)c1ccc(-c2c(-c3ccc(F)cc3)ncn2C2CCCCC2)o1` [Compound 61, 5-(1-cyclohexyl-4-(4-fluorophenyl)-1H-imidazol-5-yl)-N-(2-ethylphenyl)furan-2-carboxamide], the results for the IC50 in experiment [1], in experiment [2] (setting [3]) and in experiment [2] (read-out: TNIK_IC50) were 247 nM, 164 nM and 164 nM, respectively.

Consider `Cc1ccc(NC(=O)c2ccc(-c3c(-c4ccc(F)cc4)ncn3C3CCCC3)o2)cc1Cl` [Compound 30, N-(3-chloro-4-methylphenyl)-5-(1-cyclopentyl-4-(4-fluorophenyl)-1H-imidazol-5-yl)furan-2-carboxamide], for which the IC50 in experiment [1] came out at 888 nM; in experiment [2] (setting [3]), 95 nM; in experiment [2] (read-out: TNIK_IC50) it was 95 nM.

Turning to `O=C(Nc1ccc(F)cc1)c1ccc(-c2c(-c3ccc(F)cc3)ncn2C2CCCC2)o1` [Compound 26, 5-(1-cyclopentyl-4-(4-fluorophenyl)-1H-imidazol-5-yl)-N-(4-fluorophenyl)furan-2-carboxamide], the results for the IC50 in experiment [1], in experiment [2] (setting [3]) and in experiment [2] (read-out: TNIK_IC50) were 97.9 nM, 55 nM and 55 nM, respectively.

On to `O=C(Nc1ccc(F)c(F)c1)c1ccc(-c2c(-c3ccc(F)cc3)ncn2C2CCCC2)o1` [Compound 41, 5-(1-cyclopentyl-4-(4-fluorophenyl)-1H-imidazol-5-yl)-N-(3,4-difluorophenyl)furan-2-carboxamide], for which the results for the IC50 in experiment [1], in experiment [2] (setting [3]) and in experiment [2] (read-out: TNIK_IC50) were 639 nM, 180 nM and 180 nM, respectively.

In the case of `O=C(Nc1c(O)cncc1F)c1ccc(-c2c(-c3ccc(F)cc3)ncn2C2COCC2(F)F)o1` (stereo not drawn) [Compound A-41, 5-(1-(4,4-difluorotetrahydrofuran-3-yl)-4-(4-fluorophenyl)-1H-imidazol-5-yl)-N-(3-fluoro-5-hydroxypyridin-4-yl)furan-2-carboxamide], the IC50 was above 1000 nM in experiment [1] and 317 nM in experiment [2] (read-out: TNIK_IC50).

With `O=C(Nc1ccc(Cl)cc1F)c1ccc(-c2c(-c3ccc(F)cc3)ncn2C2CCCCC2)o1` [Compound 76, N-(4-chloro-2-fluorophenyl)-5-(1-cyclohexyl-4-(4-fluorophenyl)-1H-imidazol-5-yl)furan-2-carboxamide], the figures for the IC50 in experiment [1], in experiment [2] (setting [3]) and in experiment [2] (read-out: TNIK_IC50) were 70.3 nM, 42 nM and 42 nM, respectively.

Regarding `CC(=O)c1cccc(NC(=O)c2ccc(-c3c(-c4ccc(F)cc4)ncn3C3CCCC3)o2)c1` [Compound 35, N-(3-acetylphenyl)-5-(1-cyclopentyl-4-(4-fluorophenyl)-1H-imidazol-5-yl)furan-2-carboxamide], the IC50 in experiment [1] amounted to 274 nM; in experiment [2] (setting [3]), 151 nM; in experiment [2] (read-out: TNIK_IC50), 151 nM.

As to `O=C(Nc1ccccc1C(F)(F)F)c1ccc(-c2c(-c3ccc(F)cc3)ncn2C2CCCC2)o1` [Compound 10, 5-(1-cyclopentyl-4-(4-fluorophenyl)-1H-imidazol-5-yl)-N-(2-(trifluoromethyl)phenyl)furan-2-carboxamide], the IC50 was 30.4 nM in experiment [1], 10 nM in experiment [2] (setting [3]) and below 10 nM in experiment [2] (read-out: TNIK_IC50).

Turning to `O=C(Nc1ccccc1Cl)c1ccc(-c2c(-c3ccc(F)cc3)ncn2C2CCCC2)o1` [Compound 14, N-(2-chlorophenyl)-5-(1-cyclopentyl-4-(4-fluorophenyl)-1H-imidazol-5-yl)furan-2-carboxamide], the IC50 in experiment [1] was 10.9 nM; in experiment [2] (setting [3]), below 10 nM; in experiment [2] (read-out: TNIK_IC50), 15.2 nM.

On to `CCc1ccc(NC(=O)c2ccc(-c3c(-c4ccc(F)cc4)ncn3C3CCCC3)o2)cc1` [Compound 23, 5-(1-cyclopentyl-4-(4-fluorophenyl)-1H-imidazol-5-yl)-N-(4-ethylphenyl)furan-2-carboxamide], for which the results for the IC50 in experiment [1], in experiment [2] (setting [3]) and in experiment [2] (read-out: TNIK_IC50) were 102 nM, 55 nM and 55 nM, respectively.

With `CC(C)c1ccc(NC(=O)c2ccc(-c3c(-c4ccc(F)cc4)ncn3C3CCCCC3)o2)cc1` [Compound 73, 5-(1-cyclohexyl-4-(4-fluorophenyl)-1H-imidazol-5-yl)-N-(4-isopropylphenyl)furan-2-carboxamide], the IC50 in experiment [1] was 270 nM; in experiment [2] (setting [3]), 48 nM; in experiment [2] (read-out: TNIK_IC50), 48 nM.

On to `CCc1cccc(NC(=O)c2ccc(-c3c(-c4ccc(F)cc4)ncn3C3CCCC3)o2)c1` [Compound 39, 5-(1-cyclopentyl-4-(4-fluorophenyl)-1H-imidazol-5-yl)-N-(3-ethylphenyl)furan-2-carboxamide], for which the IC50 in experiment [1] was above 1000 nM; in experiment [2] (setting [3]), 480 nM; in experiment [2] (read-out: TNIK_IC50), 480 nM.
